Reference: patent publication US8324406B2, “Antitumoral dihydropyran-2-one compounds” (priority 2006, dated 2012)
In brackets after ≈: the same amount, converted by molar mass. Read-outs that look alike come from different tables or passages of the source.

Tests used:
[1] = tested on: breast cancer carcinoma; conditions: cited from earlier work
[2] = tested on: HeLa cells; experiment: Anti-mitotic assay (anti-MPM2 immunoassay); assay type: cell-based; conditions: Homo sapiens, 18 hours incubation, read-out: IC50 (50% mitotic arrest)
Protocol: Anti-Mitotic Assay Protocol
The mitotic ratio of the cell cultures (percentage of cells arrested in mitosis) was estimated using a specific 96-well microplate immunoassay that quantitatively detects a specific mitotic marker. HeLa cells (h-cervix carcinoma, ATCC# CCL-2) were incubated for 18 hours in the presence or absence of the samples being tested. Afterwards, cells were washed with PBS and lysed on ice in 75 μL of freshly prepared lysis buffer (1 mM EGTA (pH 7.5), 0.5 mM PMSF and 1 mM NaVO3) for 30 min. An aliquot of the cell extract (60 μL) was transferred to a high-binding surface ELISA plate and dried in a speed-vac for 2 h at room temperature. Plates were then blocked in 100 μL. PBS-1% BSA for 30 min at 30° C. and sequentially incubated with anti-MPM2 primary mouse monoclonal antibody (Upstate Biotechnology, cat #05-368) for 18 h at 4° C. and appropriate peroxidase-conjugated secondary antibody for 1 h at 30° C. After intensive washing in 0.02% Tween-20, peroxidase reaction were performed using 30 μL of TMB (3,3′,5,5′-tetramethyl-benzidine) for 30 min at 30° C. Reaction was stopped by adding 30 μL of a 4% H2SO4 solution. Assay was quantified by measuring the O.D. at 450 nm in a microplate spectrophotometer. Results were expressed as IC50, sample concentration that produces 50% mitotic arrest in treated cell cultures, as compared to control, untreated cultures.

[3] = tested on: MDA-MB-231; experiment: cells; assay type: cell-based; conditions: Homo sapiens; for IC (TGI): read-out: TGI
Excerpt: (§1) The aim of this assay is to evaluate the in vitro cytostatic (ability to delay or arrest tumor cell growth) or cytotoxic (ability to kill tumor cells) activity of the samples being tested.
(§2) Evaluation of Cytotoxic Activity Using the SBR Colorimetric Assay
(§3) A colorimetric type of assay, using sulforhodamine B (SRB) reaction has been adapted for a quantitative measurement of cell growth and viability (following the technique described by Skehan P et al. J. Natl. Cancer Inst. 1990, 82, 1107-1112).
(§4) This form of assay employs SBS-standard 96-well cell culture microplates (Faircloth et al. Methods in cell science, 1988, 11(4), 201-205; Mosmann et al, Journal of. Immunological. Methods, 1983, 65(1-2), 55-63). All the cell lines used in this study, derived from different types of human cancer, were obtained from the American Type Culture Collection (ATCC).
(§5) Cells were maintained in Dulbecco's Modified Eagle Medium (DMEM) supplemented with 10% Fetal Bovine Serum (FBS), 2 mM L-glutamine, 100 U/mL penicillin and 100 U/mL streptomycin at 37° C., 5% CO2 and 98% humidity. For the experiments, cells were harvested from subconfluent cultures using trypsinization and resuspended in fresh medium before counting and plating.
(§6) Cells were seeded in 96 well microtiter plates at 5×10^3 cells per well in aliquots of 150 μL, and allowed to attach to the plate surface for 18 hours in drug free medium. One control (untreated) plate of each cell line was fixed (as described below) and used for time zero reference value. Afterwards, test samples were added to the cultures in ten serial dilutions, in aliquots of 50 μL, ranging from 10 to 0.00262 μg/mL. After 48 hours exposure, the antitumor effect was estimated by the SRB method: Briefly, cells were washed twice with PBS, fixed for 15 min in 1% glutaraldehyde solution, rinsed twice in PBS, and stained in 0.4% SRB solution for 30 min at room temperature. Cells were then rinsed several times with 1% acetic acid solution and air-dried. SRB was then extracted in 10 mM trizma base solution and the absorbance measured in an automated spectrophotometric plate reader at 490 nm. Cell survival was expressed as percentage of control cell growth. The final effect of the sample being tested was estimated by applying the NCI algorithm (Boyd M R and Paull K D. Drug Dev. Res. 1995, 34, 91-104).
(§7) Using the mean±SD of triplicate cultures, a dose-response curve was automatically generated using nonlinear regression analysis. Three reference parameters were calculated (NCI algorithm) by automatic interpolation: GI50=concentration that produces 50% growth inhibition; TGI=total growth inhibition (cytostatic effect) and LC50=concentration that produces 50% net cell killing (cytotoxic effect).

[4] = tested on: A549; experiment: cells; assay type: cell-based; conditions: Homo sapiens; for IC (TGI): read-out: TGI
Excerpt: as §1, §2, §3, §4, §5, §6, §7

[5] = tested on: HT29; experiment: cells; assay type: cell-based; conditions: Homo sapiens; for IC (TGI): read-out: TGI
Excerpt: as §1, §2, §3, §4, §5, §6, §7

[6] = tested on: Saccharomyces cerevisiae; conditions: fungus Saccharomyces cerevisiae; cited from earlier work
[7] = tested on: L929 mouse fibroblast cell culture; conditions: cited from earlier work
[8] = MDA-MB-231, 48 h, read-out: LC50
[9] = MDA-MB-231, 48 hours exposure, SRB, 50% net cell killing (cytotoxic effect), read-out: LC50 (the source's name)
[10] = MDA-MB-231, 48 hours exposure, SRB, concentration that produces 50% growth inhibition, read-out: GI50
[11] = MDA-MB-231, 48 hours exposure, SRB, total growth inhibition (cytostatic effect)
[12] = A549, 48 hours exposure, SRB, 50% net cell killing (cytotoxic effect), read-out: LC50 (the source's name)
[13] = A549, 48 hours exposure, SRB, concentration that produces 50% growth inhibition, read-out: GI50
[14] = A549, 48 hours exposure, SRB, total growth inhibition (cytostatic effect)
[15] = HT-29, HT29, 48 hours exposure, SRB, 50% net cell killing (cytotoxic effect), read-out: LC50 (the source's name)
[16] = HT-29, HT29, 48 hours exposure, SRB, concentration that produces 50% growth inhibition, read-out: GI50
[17] = HT-29, HT29, 48 hours exposure, SRB, total growth inhibition (cytostatic effect)

| SMILES | GI50 ([3]; MDA-MB-231, 48 h) [nM] | CC50 [3, 8] [nM] | IC (TGI) ([3]; MDA-MB-231, 48 h) [nM] | GI50 ([4]; A549, 48 h) [nM] | CC50 ([4]; A549, 48 h, read-out: LC50) [nM] | IC (TGI) ([4]; A549, 48 h) [nM] | GI50 ([5]; HT-29, 48 h) [nM] | CC50 ([5]; HT-29, 48 h, read-out: LC50) [nM] | IC (TGI) ([5]; HT-29, 48 h) [nM] | CC50 [3, 9] [nM] | GI50 [3, 10] [nM] | IC (TGI) [3, 11] [nM] | CC50 [4, 12] [nM] | GI50 [4, 13] [nM] | IC (TGI) [4, 14] [nM] | CC50 [5, 15] [nM] | GI50 [5, 16] [nM] | IC (TGI) [5, 17] [nM] | also measured |
| --- | --- | --- | --- | --- | --- | --- | --- | --- | --- | --- | --- | --- | --- | --- | --- | --- | --- | --- | --- |
| C=C/C=C\[C@H](C)[C@H](OC(N)=O)[C@@H](C)[C@H](O)[C@@H](C)C/C(C)=C\[C@H](C)[C@@H](O)[C@@H](C)/C=C\[C@@H](O)CC1OC(=O)[C@H](C)[C@@H](O)[C@H]1C (single isomer, unassigned; (+)) [(+)-discodermolide] |  |  |  |  |  |  |  |  |  |  |  |  |  |  |  |  |  |  | IC50 [1]: 2.4 nM |
| COC1=CC[C@@H]([C@@H](C)/C=C(C)/C=C\C=C/C(=O)N[C@H](C(=O)N/C=C\C[C@H](C/C=C(\C)Cl)OC(N)=O)C(C)(C)C)OC1=O [Compound 1] | 0.445 | 2.8 | 0.99 | 0.379 | > 165 | 1.09 | 0.462 | 0.99 | 0.61 |  |  |  |  |  |  |  |  |  | IC50 [2]: 26.4 nM |
| COC1=CCC(C(C)/C=C(C)/C=C/C=C\C(=O)NC(C(=O)N/C=C\CC(C/C=C(\C)Cl)OC(N)=O)C(C)(C)C)OC1=O (stereo not drawn) [Compound 2] | 9.85 | 72 | 21.5 | 8.63 | ≥ 16500 | 23.7 | 8.31 | 17.2 | 10.9 |  |  |  |  |  |  |  |  |  | IC50 [2]: 26.4 nM |
| COC1=CC[C@@H]([C@@H](C)/C=C(C)/C=C\C=C/C(=O)N[C@@H](Cc2ccccc2)C(=O)N/C=C\C[C@H](C/C=C(\C)Cl)OC(N)=O)OC1=O [Compound 31] |  |  |  |  |  |  |  |  |  | 0.359 | 0.075 | 0.15 | > 15.6 | 0.0922 | 0.219 | > 15.6 | 0.0406 | 0.102 |  |
| COC1=CC[C@@H]([C@@H](C)/C=C(C)/C=C/C=C/C(=O)N[C@H](C(=O)N/C=C\C[C@H](C/C=C(\C)Cl)O[Si](C)(C)C(C)(C)C)C(C)(C)C)OC1=O [Compound 37] |  |  |  |  |  |  |  |  |  | > 14800 | 3100 | 5610 | 13900 | 3540 | 6640 | 10000 | 1920 | 2950 |  |
| COC1=CC[C@@H]([C@@H](C)/C=C(C)/C=C/C=C/C(=O)N[C@H](C(=O)N/C=C\C[C@@H](O)C/C=C(\C)Cl)C(C)(C)C)OC1=O [Compound 38] |  |  |  |  |  |  |  |  |  | > 178 | 60.4 | > 178 | > 178 | 46.2 | 67.5 | > 178 | 39.1 | 63.9 |  |
| COC1=CC[C@@H]([C@@H](C)/C=C(C)/C=C\C=C/C(=O)N[C@H](C(=O)N/C=C\C[C@@H](C/C=C(\C)Cl)OC(N)=O)C(C)(C)C)OC1=O [Compound (21S)-1] | 1.65 | 34.6 | 5.77 | 2.14 | > 1650 | 42.9 | 0.891 | 23.1 | 1.63 |  |  |  |  |  |  |  |  |  |  |
| COC(=O)CNC(=O)CCC/C=C\NC(=O)/C=C(C)/C=C/[C@H](C)[C@H](OC)[C@H](C)[C@H](/C=C/c1ccccc1)OC [crocacin D] |  |  |  |  |  |  |  |  |  |  |  |  |  |  |  |  |  |  | MIC [6]: 0.0014 µg/mL (≈ 0.00259 µM); IC50 (toxicity) [7]: 0.06 µg/mL (≈ 0.111 µM) |
| CC(=O)O[C@H]1C(=O)[C@@]2(C)[C@H]([C@H](OC(=O)c3ccccc3)[C@]3(O)C[C@H](OC(=O)[C@H](O)[C@@H](NC(=O)c4ccccc4)c4ccccc4)C(C)=C1C3(C)C)[C@]1(OC(C)=O)CO[C@@H]1C[C@@H]2O [paclitaxel] |  |  |  |  |  |  |  |  |  |  |  |  |  |  |  |  |  |  | IC50 [1]: 2.1 nM |
